{"source": "patent US9901097B2", "about": "“Agricultural and horticultural fungicidal composition” (Nippon Soda Co., Ltd., priority 2011, dated 2018)", "key": {"[1]": {"tested_on": "cucumber gray mold disease pathogens (Botrytis cinerea)", "experiment": "Control test for cucumber gray mold disease (sprayed cucumber seedlings)", "type": "in vivo", "conditions": "for pest or weed control at 25 ppm / pest or weed control at 100 ppm / pest or weed control at 400 ppm / pest or weed control at 1.6 ppm / pest or weed control at 6.3 ppm / pest or weed control at 0.4 ppm: Botrytis cinerea; for pest or weed control at 25 ppm: drug II alone 25 ppm; for pest or weed control at 100 ppm: drug II alone 100 ppm; for pest or weed control at 400 ppm: drug II alone 400 ppm", "description": "The drug I and the drug II were dissolved in an organic solvent and a surfactant, and the prepared mixed emulsifiable concentrate was diluted with water to a predetermined concentration, and sprayed to cucumber seedlings that had been cultivated in unglazed pots (cultivar “Sagamihanjiro” cotyledon stage). Additionally, in Tables, the symbol A indicating the drug I represents a nitrogen-containing heterocyclic compound represented by the formula (A), the symbol B indicating the drug I represents a nitrogen-containing heterocyclic compound represented by the formula (B), and the symbol C indicating the drug I represents a nitrogen-containing heterocyclic compound represented by the formula (C). Further, the number indicating the drug II represents each of the compounds described in the numbers described above. Additionally, “-” in Tables represents that the drug was not used.\nAfter air-drying at room temperature, a suspension of the conidia of cucumber gray mold disease pathogens (Botrytis cinerea) was inoculated by dropwise addition and held in a dark room at 20° C. with a high humidity for 3, 4, or 5 days. By investigation on the state of lesion appearance in leaves with comparison with a non-treatment case, the controlling effect was determined. The test was carried out in duplicate. In addition, the expected value of the controlling effect was calculated based on Colby's equation.\nAt the same time, in Comparative Example, in the case of using the drug I only and the case of using the drug II only, the test was carried out by the same method.\nAdditionally, the Colby's equation is E=M+N−MN/100. Here, E is the expected value of the controlling effect (%), M is the controlling effect (%) calculated from the measurement with the use of the drug I alone, and N is the controlling effect (%) calculated from the measurement with the use of the drug II alone. Additionally, in Tables, the expected values with the use of the drug alone were the same as the values calculated from the measurement, and were thus not shown."}, "Botrytis cinerea": {"tested_on": "Botrytis cinerea", "experiment": "Sterilization test (growth inhibition of Botrytis cinerea in potato dextrose medium, 96-well microplate, turbidity 405 nm)", "type": "cell-based", "description": "The solutions thus obtained were mixed to prepare fungicidal compositions.\nConidia of Botrytis cinerea were added to and dispersed in a potato dextrose culture medium. A fungicidal composition was added thereto and mixed. This was dispensed in a 96-well microplate and cultured at 20° C. for 3 days in a dark setting. Then, the turbidity was measured at a wavelength of 405 nm in a microplate reader. From comparison with the measured value of turbidity in the case of non-treatment (without the addition of the fungicidal composition), the growth inhibition rate of Botrytis cinerea (%) was calculated. The test was carried out in duplicate. Further, the expected value of the growth inhibition was calculated based on Colby's equation.\nIn addition, the Colby's equation is E=M+N−MN/100. Here, E is the expected value of a growth inhibition rate (%), M is the growth inhibition rate (%) calculated from the measurement with the use of the drug I alone, and N is the growth inhibition rate (%) calculated from the measurement with the use of the drug II alone. Additionally, in Tables, the expected values with the use of the drug alone were not shown, because they were the same as the values calculated from the measurement.\nAt the concentrations shown in Tables 6 to 8, the drug I and the drug II were dissolved separately in dimethyl sulfoxide. The obtained solution was mixed to prepare a fungicidal composition.\nUsing the same methods as in Example 1 and Comparative Example 1, the sterilization test was carried out. Additionally, in Tables, the expected values with the use of the drug alone were not shown, because they were the same as the values calculated from the measurement."}, "[2]": {"conditions": "120 h, Table 10, 5 days after inoculation, read-out: Control effect"}, "[3]": {"conditions": "Botrytis cinerea, Example 1 (Tables 1-5), drug II alone 10 ppm, read-out: Growth inhibition rate"}, "[4]": {"conditions": "96 h, 4 days after inoculation, read-out: Control effect (%)"}, "[5]": {"conditions": "96 h, Table 9, 4 days after inoculation, read-out: Control effect"}, "[6]": {"conditions": "Botrytis cinerea, Example 1 (Tables 1-5), drug II alone 0.02 ppm, read-out: Growth inhibition rate"}, "[7]": {"conditions": "Table 10, 5 days after inoculation, drug II alone 1.6 ppm"}, "[8]": {"conditions": "Example 1 (Tables 1-5), drug II alone 0.02 ppm"}, "[9]": {"conditions": "96 h, 4 days after inoculation, drug II alone 0.4 ppm, read-out: Control effect (%)"}, "[10]": {"conditions": "96 h, 4 days after inoculation, drug II alone 1.6 ppm, read-out: Control effect (%)"}, "[11]": {"conditions": "96 h, 4 days after inoculation, drug II alone 6.3 ppm, read-out: Control effect (%)"}, "[12]": {"conditions": "Botrytis cinerea, Example 2 (Tables 6-8), drug II alone 10 ppm, read-out: Growth inhibition rate"}}, "note": "Like-named read-outs stand apart in the source and are kept apart here."}
{"molecule": "O=C(Cc1ccccc1)N/C(=N\\OCC1CC1)c1c(C(F)(F)F)ccc(F)c1F", "note": "[Drug 1, Cyflufenamid]", "values": [{"measurement": "pest or weed control at 25 ppm", "setting": "[1]; [2]", "value": 0, "unit": "%"}, {"measurement": "inhibition at 10 ppm", "setting": "Botrytis cinerea; [3]", "value": 9, "unit": "%"}]}
{"molecule": "CCCOC/C(=N\\c1ccc(Cl)cc1C(F)(F)F)n1ccnc1", "note": "[Drug 2, Triflumizole]", "values": [{"measurement": "pest or weed control at 100 ppm", "setting": "[1]; [4]", "value": 1, "unit": "%"}, {"measurement": "pest or weed control at 400 ppm", "setting": "[1]; [5]", "value": 64, "unit": "%"}, {"measurement": "pest or weed control at 100 ppm", "setting": "[1]; [2]", "value": 33, "unit": "%"}, {"measurement": "inhibition at 2 ppm", "setting": "Botrytis cinerea; Botrytis cinerea, Example 1 (Tables 1-5), drug II alone 2 ppm, read-out: Growth inhibition rate", "value": 59, "unit": "%"}]}
{"molecule": "COC(=O)NC(=S)Nc1ccccc1NC(=S)NC(=O)OC", "note": "[Drug 3, Thiophanate-methyl]", "values": [{"measurement": "pest or weed control at 1.6 ppm", "setting": "[1]; 96 h, Table 9, 4 days after inoculation, drug II alone 1.6 ppm, read-out: Control effect", "value": 3, "unit": "%"}, {"measurement": "pest or weed control at 6.3 ppm", "setting": "[1]; 120 h, Table 10, 5 days after inoculation, drug II alone 6.3 ppm, read-out: Control effect", "value": 89, "unit": "%"}, {"measurement": "inhibition at 0.02 ppm", "setting": "Botrytis cinerea; [6]", "value": 0, "unit": "%"}]}
{"molecule": "CC(=O)O.CC(=O)O.CC(=O)O.NC(N)=NCCCCCCCCNCCCCCCCCN=C(N)N", "note": "[Drug 4, Iminoctadine acetate]", "values": [{"measurement": "Control effect", "setting": "[1]; [7]", "value": 0, "unit": "%"}, {"measurement": "Control effect", "setting": "[1]; Table 10, 5 days after inoculation, drug II alone 6.3 ppm", "value": 41, "unit": "%"}, {"measurement": "Growth inhibition rate", "setting": "Botrytis cinerea; [8]", "value": 27, "unit": "%"}]}
{"molecule": "CCCCCCCCCCCCc1ccc(S(=O)(=O)O)cc1.CCCCCCCCCCCCc1ccc(S(=O)(=O)O)cc1.CCCCCCCCCCCCc1ccc(S(=O)(=O)O)cc1.NC(N)=NCCCCCCCCNCCCCCCCCN=C(N)N", "note": "[Drug 5, Iminoctadine albesilate]", "values": [{"measurement": "Control effect", "setting": "[1]; Table 10, 5 days after inoculation, drug II alone 0.4 ppm", "value": 0, "unit": "%"}, {"measurement": "Control effect", "setting": "[1]; [7]", "value": 0, "unit": "%"}, {"measurement": "Growth inhibition rate", "setting": "Botrytis cinerea; [8]", "value": 6, "unit": "%"}]}
{"molecule": "COC(=O)NCc1cc(/C(C)=N/OCc2cccc(C)n2)ccc1Cl", "note": "[Drug 29, Pyribencarb]", "values": [{"measurement": "pest or weed control at 0.4 ppm", "setting": "[1]; [9]", "value": 0, "unit": "%"}, {"measurement": "pest or weed control at 1.6 ppm", "setting": "[1]; [10]", "value": 0, "unit": "%"}, {"measurement": "pest or weed control at 6.3 ppm", "setting": "[1]; [11]", "value": 37, "unit": "%"}, {"measurement": "inhibition at 0.02 ppm", "setting": "Botrytis cinerea; [6]", "value": 22, "unit": "%"}]}
{"molecule": "Cn1nnnc1/C(=N\\OCc1cccc(NC(=O)OC(C)(C)C)n1)c1ccccc1", "note": "[Drug 38]", "values": [{"measurement": "pest or weed control at 100 ppm", "setting": "[1]; [5]", "value": 0, "unit": "%"}, {"measurement": "inhibition at 10 ppm", "setting": "Botrytis cinerea; [3]", "value": 9, "unit": "%"}]}
{"molecule": "CC(C)OC(=O)C(C(=O)OC(C)C)=C1SCCS1", "note": "[Drug 41, Isoprothiolane]", "values": [{"measurement": "inhibition at 10 ppm", "setting": "Botrytis cinerea; [12]", "value": 10, "unit": "%"}]}
{"molecule": "C/C(=N\\C#N)N(C)Cc1ccc(Cl)nc1", "note": "[Drug 42, Acetamiprid]", "values": [{"measurement": "pest or weed control at 25 ppm", "setting": "[1]; [4]", "value": 0, "unit": "%"}, {"measurement": "pest or weed control at 400 ppm", "setting": "[1]; 120 h, 5 days after inoculation, read-out: Control effect (%)", "value": 0, "unit": "%"}, {"measurement": "inhibition at 10 ppm", "setting": "Botrytis cinerea; [12]", "value": 0, "unit": "%"}]}
{"molecule": "O=[N+]([O-])NC1=NCCN1Cc1ccc(Cl)nc1", "note": "[Drug 45, Imidacloprid]", "values": [{"measurement": "inhibition at 10 ppm", "setting": "Botrytis cinerea; [12]", "value": 0, "unit": "%"}]}
{"molecule": "CN1COCN(Cc2cnc(Cl)s2)/C1=N\\[N+](=O)[O-]", "note": "[Drug 46, Thiamethoxam]", "values": [{"measurement": "inhibition at 10 ppm", "setting": "Botrytis cinerea; [12]", "value": 0, "unit": "%"}]}
{"molecule": "CN/C(=N\\[N+](=O)[O-])NCc1cnc(Cl)s1", "note": "[Drug 47, Clothianidin]", "values": [{"measurement": "inhibition at 10 ppm", "setting": "Botrytis cinerea; [12]", "value": 4, "unit": "%"}]}
{"molecule": "CCOP(=S)(OCC)Oc1nc(Cl)c(Cl)cc1Cl", "note": "[Drug 48, Chlorpyrifos]", "values": [{"measurement": "inhibition at 10 ppm", "setting": "Botrytis cinerea; [12]", "value": 0, "unit": "%"}]}
{"molecule": "CS/C(C)=N\\OC(=O)N(C)SN(C)C(=O)O/N=C(\\C)SC", "note": "[Drug 49, Thiodicarb]", "values": [{"measurement": "inhibition at 10 ppm", "setting": "Botrytis cinerea; [12]", "value": 0, "unit": "%"}]}
{"molecule": "CN/C(=N/CC1CCOC1)N[N+](=O)[O-]", "note": "(stereo not shown) [Drug 51, Dinotefuran]", "values": [{"measurement": "inhibition at 10 ppm", "setting": "Botrytis cinerea; [12]", "value": 0, "unit": "%"}]}
{"molecule": "CCOc1ccc(C(C)(C)COCc2cccc(Oc3ccccc3)c2)cc1", "note": "[Drug 52, Etofenprox]", "values": [{"measurement": "inhibition at 10 ppm", "setting": "Botrytis cinerea; [12]", "value": 4, "unit": "%"}]}
{"molecule": "N#Cc1nn(-c2c(Cl)cc(C(F)(F)F)cc2Cl)c(N)c1[S+]([O-])C(F)(F)F", "note": "(stereo not shown) [Drug 53, Fipronil]", "values": [{"measurement": "inhibition at 10 ppm", "setting": "Botrytis cinerea; [12]", "value": 12, "unit": "%"}]}
{"molecule": "CC[S+]([O-])c1c(C#N)nn(-c2c(Cl)cc(C(F)(F)F)cc2Cl)c1N", "note": "(stereo not shown) [Drug 54, Ethiprole]", "values": [{"measurement": "inhibition at 10 ppm", "setting": "Botrytis cinerea; [12]", "value": 2, "unit": "%"}]}
{"molecule": "CC1=NNC(=O)N(/N=C/c2cccnc2)C1", "note": "[Drug 55, Pymetrozine]", "values": [{"measurement": "inhibition at 10 ppm", "setting": "Botrytis cinerea; [12]", "value": 3, "unit": "%"}]}
{"molecule": "Cc1nc(C(F)(F)F)c(C(=O)Nc2c(Br)cc(OC(F)(F)F)cc2Br)s1", "note": "[Drug 56, Thifluzamide]", "values": [{"measurement": "inhibition at 10 ppm", "setting": "Botrytis cinerea; [12]", "value": 28, "unit": "%"}]}
{"molecule": "CC(C)N1C(=O)N(c2ccccc2)CS/C1=N\\C(C)(C)C", "note": "[Drug 57, Buprofezin]", "values": [{"measurement": "inhibition at 10 ppm", "setting": "Botrytis cinerea; [12]", "value": 0, "unit": "%"}]}
{"molecule": "O=C(Nc1ccccc1-c1ccc(Cl)cc1)c1cccnc1Cl", "note": "[Drug 58, Boscalid]", "values": [{"measurement": "pest or weed control at 0.4 ppm", "setting": "[1]; [9]", "value": 0, "unit": "%"}, {"measurement": "pest or weed control at 1.6 ppm", "setting": "[1]; [10]", "value": 0, "unit": "%"}, {"measurement": "pest or weed control at 6.3 ppm", "setting": "[1]; [11]", "value": 39, "unit": "%"}]}
{"molecule": "CCOCn1c(-c2ccc(Cl)cc2)c(C#N)c(Br)c1C(F)(F)F", "note": "[Drug 59, Chlorfenapyr]", "values": [{"measurement": "pest or weed control at 400 ppm", "setting": "[1]; [4]", "value": 0, "unit": "%"}]}
{"molecule": "Manzeb [Drug 32]", "values": [{"measurement": "Growth inhibition rate", "setting": "Botrytis cinerea; Example 1 (Tables 1-5), drug II alone 2 ppm", "value": 11, "unit": "%"}]}
{"molecule": "Spinosad [Drug 50]", "values": [{"measurement": "Growth inhibition rate", "setting": "Botrytis cinerea; Example 2 (Tables 6-8), drug II alone 10 ppm", "value": 0, "unit": "%"}]}
